Compound: C1CC(C2=C(C1)C3=C(N2)C=CC(=C3)Cl)C(=O)N [Selisistat] + CS(=O)(=O)CCNCc1ccc(-c2ccc3ncnc(Nc4ccc(OCc5cccc(F)c5)c(Cl)c4)c3c2)o1 [Lapatinib] (partner 2 µM)
Experiment: relative viability (nuclei count vs DMSO), 5 days (fraction); higher = more cells survive
Conditions: first compound 0.4 µM
Procedure, shortened: (§1)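 Relative viability equals treated-well nuclei counts divided by vehicle-well nuclei counts. Counts came from 4× images of lung cancer cell lines grown in 1536-well plates for 5 days after pin-tool dosing on the day after seeding. Dosing used one drug alone or a fixed anchor-drug dose plus five library-drug doses (not always all listed) in √10 steps, and values are medians of duplicate plates.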

Going from BEN to HARA, the relative viability rises from 0.677 to 0.726.

Compared with HCC-78, NCI-H322M is lower in relative viability: 0.811 for the first, 0.595 for the second.

First: LCLC-97TM1
Second: NCI-H2009
The relative viability of the first is lower: 0.779 for the first, 0.903 for the second.

Going from A-427 to NCI-H661, the relative viability falls from 1.03 to 0.515.

Going from NCI-H1734 to NCI-H460, the relative viability falls from 1.03 to 0.909.

Going from NCI-H2347 to SK-LU-1, the relative viability falls from 1.06 to 0.924.

Compared with 201T, NCI-H1915 is lower in relative viability: 1.11 for the first, 0.967 for the second.

First: HCC-827
Second: LXF-289
The relative viability of the first is lower: 0.192 for the first, 0.913 for the second.

First: NCI-H23
Second: NCI-H647
The relative viability of the first is lower: 1.16 for the first, 1.19 for the second.

Going from CAL-12T to NCI-H1651, the relative viability rises from 0.628 to 0.785.

Going from EPLC-272H to NCI-H2228, the relative viability rises from 0.761 to 0.99.

Going from NCI-H1792 to NCI-H1355, the relative viability rises from 0.917 to 0.923.

Going from NCI-H3122 to NCI-H1437, the relative viability falls from 1.01 to 0.801.

First: NCI-H1755
Second: NCI-H2023
The relative viability of the first is higher: 1.12 for the first, 0.703 for the second.

First: HCC-15
Second: PC-14
The relative viability of the first is higher: 0.878 for the first, 0.371 for the second.

First: EKVX
Second: LC-2-ad
The relative viability of the first is lower: 0.213 for the first, 1.01 for the second.

First: NCI-H1563
Second: NCI-H1944
The relative viability of the first is higher: 1.03 for the first, 0.797 for the second.

Same assay, conditions: first compound 1.265 µM

Going from BEN to HARA, the relative viability rises from 0.683 to 0.691.

Going from HCC-78 to NCI-H322M, the relative viability falls from 0.891 to 0.562.

Going from LCLC-97TM1 to NCI-H2009, the relative viability falls from 1.12 to 0.961.

First: A-427
Second: NCI-H661
The relative viability of the first is higher: 1.02 for the first, 0.469 for the second.

First: NCI-H1734
Second: NCI-H460
The relative viability of the first is higher: 1.04 for the first, 0.952 for the second.

First: NCI-H2347
Second: SK-LU-1
The relative viability of the first is higher: 0.943 for the first, 0.825 for the second.

Compared with 201T, NCI-H1915 is lower in relative viability: 1.02 for the first, 0.969 for the second.

Compared with HCC-827, LXF-289 is higher in relative viability: 0.189 for the first, 0.949 for the second.

Going from NCI-H23 to NCI-H647, the relative viability rises from 1.06 to 1.07.

Compared with CAL-12T, NCI-H1651 is higher in relative viability: 0.704 for the first, 0.769 for the second.

Going from EPLC-272H to NCI-H2228, the relative viability rises from 0.996 to 1.2.

Compared with NCI-H1792, NCI-H1355 is higher in relative viability: 0.89 for the first, 1 for the second.

Going from NCI-H3122 to NCI-H1437, the relative viability falls from 1.01 to 0.758.

Compared with NCI-H1755, NCI-H2023 is lower in relative viability: 1.15 for the first, 0.812 for the second.

Compared with HCC-15, PC-14 is lower in relative viability: 0.864 for the first, 0.356 for the second.

First: EKVX
Second: LC-2-ad
The relative viability of the first is lower: 0.243 for the first, 0.968 for the second.

Compared with NCI-H1563, NCI-H1944 is lower in relative viability: 0.95 for the first, 0.767 for the second.

Same assay, conditions: first compound 4 µM

Going from BEN to HARA, the relative viability rises from 0.471 to 0.71.

First: HCC-78
Second: LCLC-97TM1
The relative viability of the first is lower: 0.448 for the first, 0.86 for the second.

First: NCI-H2009
Second: A-427
The relative viability of the first is lower: 0.454 for the first, 0.98 for the second.

Going from NCI-H661 to NCI-H1734, the relative viability rises from 0.502 to 1.17.

Compared with NCI-H2347, SK-LU-1 is higher in relative viability: 0.482 for the first, 0.936 for the second.

Compared with 201T, NCI-H1915 is lower in relative viability: 1.02 for the first, 0.918 for the second.

Compared with HCC-827, LXF-289 is higher in relative viability: 0.203 for the first, 0.926 for the second.

First: NCI-H1651
Second: NCI-H2228
The relative viability of the first is lower: 0.749 for the first, 1.31 for the second.

Going from NCI-H3122 to NCI-H1437, the relative viability falls from 0.772 to 0.341.

Going from NCI-H1755 to NCI-H2023, the relative viability falls from 1.01 to 0.537.

Going from PC-14 to EKVX, the relative viability falls from 0.218 to 0.185.

Compared with LC-2-ad, NCI-H1563 is higher in relative viability: 0.803 for the first, 0.881 for the second.

Same assay, conditions: first compound 12.65 µM

Compared with BEN, HARA is higher in relative viability: 0.603 for the first, 0.778 for the second.

Going from HCC-78 to NCI-H322M, the relative viability rises from 0.589 to 0.623.

First: LCLC-97TM1
Second: NCI-H2009
The relative viability of the first is higher: 0.928 for the first, 0.826 for the second.

Going from A-427 to NCI-H661, the relative viability falls from 0.879 to 0.396.

Compared with NCI-H1734, NCI-H460 is lower in relative viability: 1.02 for the first, 0.903 for the second.

Compared with NCI-H2347, SK-LU-1 is higher in relative viability: 0.882 for the first, 0.958 for the second.

Compared with 201T, NCI-H1915 is lower in relative viability: 1.03 for the first, 0.897 for the second.

First: HCC-827
Second: LXF-289
The relative viability of the first is lower: 0.182 for the first, 0.864 for the second.

First: NCI-H23
Second: NCI-H647
The relative viability of the first is higher: 1.24 for the first, 0.993 for the second.

Going from CAL-12T to NCI-H1651, the relative viability rises from 0.627 to 0.789.

Going from EPLC-272H to NCI-H2228, the relative viability falls from 0.955 to 0.868.

Going from NCI-H1792 to NCI-H1355, the relative viability rises from 0.829 to 1.02.

Compared with NCI-H3122, NCI-H1437 is lower in relative viability: 1.05 for the first, 0.71 for the second.

Going from NCI-H1755 to NCI-H2023, the relative viability falls from 1.01 to 0.859.

Going from HCC-15 to PC-14, the relative viability falls from 0.867 to 0.294.

Going from EKVX to LC-2-ad, the relative viability rises from 0.252 to 0.833.

Going from NCI-H1563 to NCI-H1944, the relative viability falls from 0.825 to 0.746.

Same assay, conditions: first compound 40 µM

Compared with BEN, HARA is higher in relative viability: 0.548 for the first, 0.904 for the second.

Compared with HCC-78, NCI-H322M is lower in relative viability: 0.658 for the first, 0.561 for the second.

First: LCLC-97TM1
Second: NCI-H2009
The relative viability of the first is higher: 1.32 for the first, 0.987 for the second.

Going from A-427 to NCI-H661, the relative viability falls from 1.12 to 0.535.

Going from NCI-H1734 to NCI-H460, the relative viability falls from 1.16 to 0.911.

Going from NCI-H2347 to SK-LU-1, the relative viability falls from 0.983 to 0.867.

Going from 201T to NCI-H1915, the relative viability falls from 1.08 to 1.02.

Going from HCC-827 to LXF-289, the relative viability rises from 0.186 to 0.921.

First: NCI-H23
Second: NCI-H647
The relative viability of the first is lower: 1 for the first, 1.17 for the second.

Compared with CAL-12T, NCI-H1651 is higher in relative viability: 0.646 for the first, 0.939 for the second.

Compared with EPLC-272H, NCI-H2228 is higher in relative viability: 0.915 for the first, 1.07 for the second.

Compared with NCI-H1792, NCI-H1355 is higher in relative viability: 0.926 for the first, 1.04 for the second.

Compared with NCI-H3122, NCI-H1437 is lower in relative viability: 1.1 for the first, 0.776 for the second.

First: NCI-H1755
Second: NCI-H2023
The relative viability of the first is higher: 1.13 for the first, 0.758 for the second.

Going from HCC-15 to PC-14, the relative viability falls from 1.01 to 0.342.

First: EKVX
Second: LC-2-ad
The relative viability of the first is lower: 0.215 for the first, 1.04 for the second.

Going from NCI-H1563 to NCI-H1944, the relative viability falls from 0.921 to 0.854.

Compound: C1CC(C2=C(C1)C3=C(N2)C=CC(=C3)Cl)C(=O)N [Selisistat] + C[C@@H](Oc1cc(-c2cnn(C3CCNCC3)c2)cnc1N)c1c(Cl)ccc(F)c1Cl [Crizotinib] (partner 1 µM)
Experiment: as above
Conditions: first compound 0.4 µM
Procedure, shortened: as §1

BEN was tested, and the relative viability was 0.843.
